The target in assay [1] is T1, Vitamin D3 receptor (Homo sapiens) (UniProt P11473).
T1 sequence (whole entry): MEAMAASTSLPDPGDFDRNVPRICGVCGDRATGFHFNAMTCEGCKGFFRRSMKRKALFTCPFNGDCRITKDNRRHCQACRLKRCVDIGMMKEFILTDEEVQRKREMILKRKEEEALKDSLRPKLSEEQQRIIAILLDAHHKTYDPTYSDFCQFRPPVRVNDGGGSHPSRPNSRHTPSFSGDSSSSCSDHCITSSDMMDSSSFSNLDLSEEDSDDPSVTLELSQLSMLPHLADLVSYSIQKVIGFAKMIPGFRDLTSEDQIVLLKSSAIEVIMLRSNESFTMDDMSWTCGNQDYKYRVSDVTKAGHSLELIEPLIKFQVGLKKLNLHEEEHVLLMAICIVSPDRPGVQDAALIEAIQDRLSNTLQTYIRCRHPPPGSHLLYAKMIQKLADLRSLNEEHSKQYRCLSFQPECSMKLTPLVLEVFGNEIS
Put plainly: Binding affinity to full-length VDR (unknown origin) at 1 uM by fluorescence polarization assay relative to control.

Assay [2] concerns LX-2. The experiment in a line: Inhibition of HSC activation in TGF-beta1-treated human LX2 cells assessed as decrease in COL1A1 mRNA level at 0.5 uM incubated for 24 hrs by qPCR analysis. It counts as functional, cell-based.
In assay [3] the test system is LX-2. Put plainly: Inhibition of HSC activation in TGF-beta1-treated human LX2 cells assessed as decrease in collagen-I level at 0.5 uM incubated for 24 hrs by Western blot analysis. The class given is functional, cell-based.
The test system of assay [4] is LX-2. Put plainly: Inhibition of HSC activation in TGF-beta1-treated human LX2 cells assessed as decrease in ACTA2 mRNA level at 0.5 uM incubated for 24 hrs by qPCR analysis. The class given is functional, cell-based.
In assay [5] the test system is LX-2. The experiment in a line: Inhibition of HSC activation in TGF-beta1-treated human LX2 cells assessed as decrease in alpha-SMA level at 0.5 uM incubated for 24 hrs by Western blot analysis. The class given is functional, cell-based.
The target of assay [6] is T1, Vitamin D3 receptor (Homo sapiens). The experiment in a line: Agonist activity at human VDR in HEK293 cells co-expressing 3-Luc/RXRalpha assessed as transcriptional activity at 0.5 uM by dual luciferase reporter assay. The conditions noted are these: filed as agonist. It counts as cell-based.
Assay [7] shares this target. The experiment in a line: Agonist activity at VDR in human LX2 cells assessed as increase in CYP24A1 level at 0.5 uM by qRT-PCR analysis. It counts as cell-based. The conditions noted are these: filed as agonist.
For assay [8], the system named is LX-2. Put plainly: Inhibition of HSC activation in TGF-beta1-treated human LX2 cells harboring VDR siRNA assessed as decrease in alpha-SMA level at 0.5 uM incubated for 24 hrs by Western blot analysis. The class given is functional, cell-based.
Assay [9] relates to LX-2. Put plainly: Inhibition of HSC activation in TGF-beta1-treated human LX2 cells harboring VDR siRNA assessed as decrease in collagen-I level at 0.5 uM incubated for 24 hrs by Western blot analysis. It counts as functional, cell-based.

Results on 39 molecules are retold here after ChEMBL document CHEMBL6153077, “Design, synthesis, and anti-liver fibrosis activity of novel non-steroidal vitamin D receptor agonists based on open-ring steroid scaffold” (Eur J Med Chem, 2025).

Activity calls are given as the source filed them. No cut-off for these calls is given here.

In assay [1] (filed as agonist), `O=C(COc1ccc(/C=C/C2=C[C@@H](O)[C@@H](O)[C@H](O)C2)c2c1CCCC2)N1CCOCC1` showed an Activity of 45%. In the case of `CC(C)(O)CCCOc1ccc(C#CC2=C[C@@H](O)[C@@H](O)[C@H](O)C2)c2c1CCCC2`, in assay [1], the Activity turned out to be 15%. In turn, `CC(C)(O)CCCOc1cccc(COC(=O)C2=C[C@@H](O)[C@@H](O)[C@H](O)C2)c1` displayed an Activity in assay [1] (filed as agonist) of 49%. `CCC(O)(CC)COc1ccc(/C=C/C2=C[C@@H](O)[C@@H](O)[C@H](O)C2)c2c1CCCC2` came in with an Activity in assay [1] (filed as agonist) of 61%.

With `CCC(OC(=O)C1=C[C@@H](O)[C@@H](O)[C@H](O)C1)c1cccc(OCCCC(C)(C)O)c1` (stereo partly drawn), the inhibition entry in [2], in assay [3], in assay [4] and in [5] was “Active” throughout. For the same molecule, in assay [1] (filed as agonist), the Activity was found to be 84%.

As to `CC(C)(O)CCOc1cccc2c1CCCC2OC(=O)C1=C[C@@H](O)[C@@H](O)[C@H](O)C1` (stereo partly drawn), the Activity in assay [1] (filed as agonist) was found to be 45%. On the same count and under the same terms, the value for `CC(C)(O)CCCOc1ccc(/C=C/C2=C[C@@H](O)[C@@H](O)[C@H](O)C2)c2c1CCCC2` was 43%. Still for that read-out and setting: the figure for `CC(C)(O)CCCn1ccc2c(/C=C/C3=C[C@@H](O)[C@@H](O)[C@H](O)C3)cccc21` is 71%. On the same count and under the same terms, the value for `CC(C)(C)C(O)COc1ccc(/C=C/C2=C[C@@H](O)[C@@H](O)[C@H](O)C2)c2c1CCCC2` (stereo partly drawn) was 50%. As for `CC(C)(O)CCCCOc1ccc(C#CC2=C[C@@H](O)[C@@H](O)[C@H](O)C2)c2c1CCCC2`, the Activity in assay [1] (filed as agonist) was 50%. Same read-out and setting: the value for `CC(C)(C)c1ccc(C(=O)COc2ccc(/C=C/C3=C[C@@H](O)[C@@H](O)[C@H](O)C3)c3c2CCCC3)cc1` was 88%. `CCC(O)(CC)CCCOc1cccc2c1CCCC2OC(=O)C1=C[C@@H](O)[C@@H](O)[C@H](O)C1` (stereo partly drawn): in assay [1] (filed as agonist), the Activity was found to be 68%. Molecule `CC(C)(O)CCOc1ccc(/C=C/C2=C[C@@H](O)[C@@H](O)[C@H](O)C2)c2c1CCCC2` gave an Activity in [1] (filed as agonist) of 55%. The same measure, in the same setting: the figure for `CCN(CC)C(=O)COc1ccc(/C=C/C2=C[C@@H](O)[C@@H](O)[C@H](O)C2)c2c1CCCC2` is 56%. For the molecule `O=C(OC1CCCc2c(OCCCN3CCOCC3)cccc21)C1=C[C@@H](O)[C@@H](O)[C@H](O)C1` (stereo partly drawn), the inhibition result in assay [2], in assay [3], in assay [4] and in [5] was “inactive” each time. In assay [1], this molecule registered an Activity of 50%.

On to `CCC(O)(CC)c1ccc(-c2ccc(COC(=O)C3=C[C@@H](O)[C@@H](O)[C@H](O)C3)s2)c(C)c1`, for which the outcome in assay [6] and in assay [7] was Active. Besides, the inhibition result in assay [2], in assay [3], in [4] and in assay [5] was “Active” in each case. The same molecule registered an Activity in [1] (filed as agonist) of 60%. `C=CCC(O)(CC=C)CCCOc1cccc2c1CCCC2OC(=O)C1=C[C@@H](O)[C@@H](O)[C@H](O)C1` (stereo partly drawn) returned an Activity in [1] (filed as agonist) of 51%. As for `CCCC(OC(=O)C1=C[C@@H](O)[C@@H](O)[C@H](O)C1)c1cccc(OCCCC(C)(C)O)c1` (stereo partly drawn), the inhibition entry in assay [2], in assay [3], in assay [4] and in assay [5] was “Active” each time. In addition, the Activity in assay [1] (filed as agonist) stood at 77%.

In the case of `CCCCC(OC(=O)C1=C[C@@H](O)[C@@H](O)[C@H](O)C1)c1cccc(OCCCC(C)(C)O)c1` (stereo partly drawn), the Activity in assay [1] (filed as agonist) came to 50%. On to `CCC(O)(CC)CCCOc1ccc(C#CC2=C[C@@H](O)[C@@H](O)[C@H](O)C2)c2c1CCCC2`, for which the outcome in [1] was inactive. Take `O=C(COc1ccc(/C=C/C2=C[C@@H](O)[C@@H](O)[C@H](O)C2)c2c1CCCC2)c1ccccc1`: the inhibition entry in assay [2] and in assay [4] was “Active” each time. Moreover, in assay [1] (filed as agonist), the Activity turned out to be 72%. Also, the outcome in [7] was Active. In assay [1] (filed as agonist), `CC(C)(O)CCCCOc1cccc2c1CCCC2OC(=O)C1=C[C@@H](O)[C@@H](O)[C@H](O)C1` (stereo partly drawn) registered an Activity of 65%. Take `CCCCC(O)(CCCC)CCCOc1cccc2c1CCCC2OC(=O)C1=C[C@@H](O)[C@@H](O)[C@H](O)C1` (stereo partly drawn): the Activity in assay [1] was determined as 34%. In [1], `CC(C)(O)CCCCOc1ccc(/C=C/C2=C[C@@H](O)[C@@H](O)[C@H](O)C2)c2c1CCCC2` came in with an Activity of 21%. `CC(C)(O)CCCOc1cccc2c1CCCC2OC(=O)C1=C[C@@H](O)[C@@H](O)[C@H](O)C1` (stereo partly drawn) showed an Activity in assay [1] (filed as agonist) of 69%. Still for that read-out and setting: the value for `CCC(O)(CC)CCCCOc1ccc(C#CC2=C[C@@H](O)[C@@H](O)[C@H](O)C2)c2c1CCCC2` was 49%. Regarding `CC(C)(O)CCOc1ccc(C#CC2=C[C@@H](O)[C@@H](O)[C@H](O)C2)c2c1CCCC2`, in [1] (filed as agonist), the Activity amounted to 56%. The molecule `C=C1/C(=C\C=C2/CCC[C@]3(C)[C@@H]([C@H](C)/C=C/[C@@H](O)C4CC4)CC[C@@H]23)C[C@@H](O)C[C@@H]1O` had an Activity in [1] (filed as agonist) of 100%. Besides, the inhibition result in [8] and in assay [9] was “inactive” in each case. Molecule `CC(OC(=O)C1=C[C@@H](O)[C@@H](O)[C@H](O)C1)c1cccc(OCCCC(C)(C)O)c1` (stereo partly drawn) came in with an Activity in assay [1] (filed as agonist) of 85%. Still for that read-out and setting: the value for `CC(C)(O)COc1ccc(/C=C/C2=C[C@@H](O)[C@@H](O)[C@H](O)C2)c2c1CCCC2` was 72%; that for `CCN(CC)CCCOc1cccc2c1CCCC2OC(=O)C1=C[C@@H](O)[C@@H](O)[C@H](O)C1` (stereo partly drawn) was 64%.

`OCc1ccc(/C=C/c2ccc(OCCCC(F)(F)F)cc2)cc1CO` registered an Activity in assay [1] (filed as agonist) of 51%. Same read-out and setting: the figure for `Cc1cc(C(C)(C)O)ccc1-c1ccc(COC(=O)C2=C[C@@H](O)[C@@H](O)[C@H](O)C2)s1` is 71%. Same read-out and setting: the figure for `CC(C)c1ccc(C(=O)COc2ccc(/C=C/C3=C[C@@H](O)[C@@H](O)[C@H](O)C3)c3c2CCCC3)cc1` is 76%; for `CC(C)(C)C(=O)COc1ccc(/C=C/C2=C[C@@H](O)[C@@H](O)[C@H](O)C2)c2c1CCCC2` it is 68%. `CCC(O)(CC)CCCn1ccc2c(/C=C/C3=C[C@@H](O)[C@@H](O)[C@H](O)C3)cccc21` yielded an Activity in assay [1] (filed as agonist) of 64%. Further, the outcome in assay [7] was Active. For the molecule `OC(COc1ccc(/C=C/C2=C[C@@H](O)[C@@H](O)[C@H](O)C2)c2c1CCCC2)c1ccccc1` (stereo partly drawn), the inhibition entry in assay [2], in assay [3], in [4] and in [5] was “inactive” throughout. Also, the Activity in assay [1] came out at 77%.

`CCn1cc(C(CC)(CC)c2ccc(OCC(O)CO)c(C)c2)cc1C(=O)NCC(C)(C)O` (stereo not drawn): the Activity in assay [1] (filed as agonist) stood at 57%. For the same molecule, the inhibition entry in assay [8] and in assay [9] was “inactive” each time. Regarding `CCCC(O)(CCC)CCCOc1cccc2c1CCCC2OC(=O)C1=C[C@@H](O)[C@@H](O)[C@H](O)C1` (stereo partly drawn), the outcome in assay [6] and in [7] was Active. For the same molecule, the inhibition result in assay [2] and in [4] was “Active” each time. In assay [1] (filed as agonist), the Activity amounted to 77%.
